Common to all, as to format: cell-based
What all share (settings): SPAP reporter

The target in assay [1] is T1, HPPARδ (Homo sapiens, UniProt Q03181).
T1 construct: expressed in transfected cells; host or cells: CV-1 cells
T1 sequence (Q03181 211-439 limits assumed): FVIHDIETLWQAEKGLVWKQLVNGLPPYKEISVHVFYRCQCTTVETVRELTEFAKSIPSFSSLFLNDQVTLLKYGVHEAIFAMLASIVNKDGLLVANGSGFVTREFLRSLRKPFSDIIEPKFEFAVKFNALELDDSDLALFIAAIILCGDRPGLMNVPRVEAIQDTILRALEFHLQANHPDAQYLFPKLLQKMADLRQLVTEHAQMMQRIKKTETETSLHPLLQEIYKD
The assay can be described thus: Transient transfection (transactivation) assay, hPPAR delta-GAL4 chimera in CV-1 cells. An excerpt: (§1) Compounds were screened for functional potency in transient transfection assays in CV-1 cells for their ability to activate the PPAR subtypes (transactivation assay). A previously established chimeric receptor system was utilized to allow comparison of the relative transcriptional activity of the receptor subtypes on the same target gene and to prevent endogenous receptor activation from complicating the interpretation of results. See, for example, Lehmann, J. M.; Moore, L. B.; Smith-Oliver, T. A.; Wilkison, W. O.; Willson, T. M.; Kliewer, S. A., An antidiabetic thiazolidinedione is a high affinity ligand for peroxisome proliferator-activated receptor gamma (PPARgamma), J. Biol. Chem., 270, 12953-6 (1995). The ligand binding domains for murine and human PPAR alpha, PPAR gamma, and PPAR delta were each fused to the yeast transcription factor GAL4 DNA binding domain. CV-1 cells were transiently transfected with expression vectors for the respective PPAR chimera along with a reporter construct containing five copies of the GAL4 DNA binding site driving expression of secreted placental alkaline phosphatase (SPAP) and beta-galactosidase. After 16 h, the medium was exchanged to DME medium supplemented with 10% delipidated fetal calf serum and the test compound at the appropriate concentration. […]

The target of assay [2] is T2, HPPARγ (Homo sapiens, UniProt P37231).
T2 construct: expressed in transfected cells; host or cells: CV-1 cells
T2 sequence (P37231 238-503 limits assumed): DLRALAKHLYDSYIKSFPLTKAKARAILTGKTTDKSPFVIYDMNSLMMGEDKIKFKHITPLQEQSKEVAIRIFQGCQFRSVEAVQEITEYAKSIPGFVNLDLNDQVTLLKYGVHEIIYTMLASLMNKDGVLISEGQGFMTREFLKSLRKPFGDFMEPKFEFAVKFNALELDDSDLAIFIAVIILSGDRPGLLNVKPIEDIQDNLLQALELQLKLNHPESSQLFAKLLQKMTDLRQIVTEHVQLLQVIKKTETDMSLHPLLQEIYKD
The assay can be described thus: Transient transfection (transactivation) assay, hPPAR gamma-GAL4 chimera in CV-1 cells.
Source text: as §1

Assay [3] addresses T3, HPPARα (Homo sapiens, UniProt Q07869).
T3 construct: expressed in transfected cells; host or cells: CV-1 cells
T3 sequence (Q07869 239-466 limits assumed): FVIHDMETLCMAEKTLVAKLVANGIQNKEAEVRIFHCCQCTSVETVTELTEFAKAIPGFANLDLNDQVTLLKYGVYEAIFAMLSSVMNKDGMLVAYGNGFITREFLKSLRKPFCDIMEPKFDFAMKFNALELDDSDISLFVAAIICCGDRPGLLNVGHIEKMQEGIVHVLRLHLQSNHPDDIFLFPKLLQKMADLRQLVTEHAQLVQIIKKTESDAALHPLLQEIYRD
Description: Transient transfection (transactivation) assay, hPPAR alpha-GAL4 chimera in CV-1 cells.
Source text: as §1

Regarding `Cc1nc(C(=O)NCc2ccc(OC(C)(C)C(=O)O)cc2)sc1-c1ccc(C(C)C)cc1` [Example 1, 2-methyl-2-[(4-{[({4-methyl-5-[4-(1-methylethyl)phenyl]-1,3-thiazol-2-yl}carbonyl)amino]methyl}phenyl)oxy]propanoic acid], the EC50 (in general, the midpoint of the concentration-response curve) in assay [1] stood at 6.1 µM; in assay [2] it was 0.19 µM; in assay [3], 0.008 µM.
